Experimental data from ChEMBL document CHEMBL4665911, “Novel Arginase Inhibitors for Treating Cancer and Respiratory Inflammatory Diseases” (ACS Med Chem Lett, 2020).

Target: T1, Arginase-1 (Homo sapiens, UniProt P05089)
T1 sequence (P05089 whole entry): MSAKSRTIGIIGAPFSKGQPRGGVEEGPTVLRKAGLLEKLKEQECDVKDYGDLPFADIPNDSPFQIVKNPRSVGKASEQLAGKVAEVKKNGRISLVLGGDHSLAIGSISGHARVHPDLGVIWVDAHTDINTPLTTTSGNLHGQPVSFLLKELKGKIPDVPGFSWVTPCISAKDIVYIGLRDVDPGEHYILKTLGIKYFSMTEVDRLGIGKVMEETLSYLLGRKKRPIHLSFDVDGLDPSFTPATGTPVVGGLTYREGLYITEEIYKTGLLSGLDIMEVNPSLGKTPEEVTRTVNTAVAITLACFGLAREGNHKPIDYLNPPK
Test: Inhibition of human recombinant arginase 1 expressed in Escherichia coli using thioarginine by Ellman's assay

IC50: 30 nM
SMILES: N[C@H]1CCN[C@@](CCCCB(O)O)(C(=O)O)C1
